{"source": "patent US7560267B2", "about": "“Apparatus and methods for on-chip monitoring of cellular reactions” (City University of Hong Kong, priority 2002, dated 2009)", "key": {"HL60 cells [1]": {"system": "HL60 cells", "assay": "ATP threshold concentration by conventional fluorescence measurements (13 serial dilution experiments)", "assay_type": "cell-based", "settings": "13 individual serial dilution experiments, FIG. 8", "experimental": "FIG. 8 is a plot of ATP threshold concentration obtained by conventional techniques for comparison purposes, In this example, first of all a viability test was carried out to confirm that after docking a sufficient number of living cells were safely docked, and then a concentration gradient was made visible by a fluorophore. When the presence of a viable number of docked cells, and the creation of a concentration gradient were confirmed, the threshold concentration for calcium uptake was calculated using the apparatus of the invention, and then the results compared with an experiment using conventional serial dilution techniques. The ATP concentration gradient along the dam structure was estimated according to the above computational model. Combining the results obtained in 2 μM and 5 μM ATP stimulations, the threshold concentration was estimated within a range of 0.16±0.02 μM. The threshold concentration was also determined using conventional fluorescence measurements. […] The threshold concentration range was determined to be 0.15-0.19 μM, which is in good agreement with the result obtained using the embodiment of the present invention."}, "HL60 cells [2]": {"system": "HL60 cells", "assay": "On-chip ATP-dependent calcium uptake in docked HL60 cells (Fluo-3 fluorescence, concentration gradient)", "assay_type": "cell-based", "experimental": "A practical embodiment of the present invention will now be described with reference to a typical experiment of the type for which the present invention is particularly suitable. In particular, in the following example an embodiment of the invention will be used to calculate the threshold ATP concentration that induces calcium uptake in HL60 mammalian cells. In this example HL60 cells (leukemia, promyelocytic) were suspended in 0.5 ml fresh RPMI 1640 with Pluronic F-127 (1% w/v final) and Fluo3-AM (2 micro molar final). After 30 minutes of incubation at room temperature, cells were re-suspended in (Hank's balanced salt solution) HBSS before loading into the apparatus. The example was carried out with an apparatus as shown in FIG. 1 and manufactured as described above. Before use, the etched quartz plate and a PDMS cover were touch-bonded and irradiated with UV light for 10 minutes in a bio-safety cabinet. After filling up micro-channels with buffer by capillary action, the apparatus was securely mounted on the stage of confocal microscope. Introduction of various fluids was implemented by using a 2-20 […] auto-pipette (HLT pipette-mate). An Axiovert 100M confocal microscope (Carl Zeiss) was used for data acquisition. Profiling data analysis mode was employed to present PMT response along a specific line in the apparatus. All fluorophores were excited by Argon (488 nm) laser. An emission filter 505-530 nm was used for Fluo-3 and AO while a 560 nm (long-pass) filter was used for ethidium bromide (EB) study. Scanning parameters were kept identical throughout all experiments for a particular fluorophore. Mammalian HL60 cells uptake extracellular calcium ions when the buffer ATP concentration is beyond a particular level. The minimum ATP concentration required to induce calcium uptake is referred as the threshold concentration. In this example of the use of an embodiment of the invention, cell docking and analyte concentration gradient were combined to determine the threshold concentration of ATP-dependent calcium uptake. The fluorescence images of the microchip under different conditions are shown in FIG. 6, with about 80 docked cells along the dam. In the “control” image and intensity measurement, the background cellular signal was due to the presence of intracellular calcium in HL60 cells. When an ATP solution (2 μM) was loaded into the CW/A vial, the cellular signal intensity was increased by 3-fold in the first zone (A to B) as compared to other zones (FIGS. 6 & 7, 2 μM images). The ATP threshold concentration can therefore be visualized as being between points B and C. After washing with buffer, the same batch of docked HL60 cells were exposed to higher ATP concentrations. Using the same LLP, the threshold concentration range shifted downstream with increasing analyte concentrations. As shown in FIGS. 6 & 7, with 5 μM ATP loaded into the apparatus, the cellular fluorescence intensity-in the first (A to B) and second (C to D) zones were enhanced. The threshold concentration range was shifted to the zone between points D & E. Repeating this process with 10 μM ATP, the Ca-related fluorescence in all cells in all zones were excited, (the signal intensity at the first zone was relatively weak due to desensitization from multiple ATP stimulations.). […] Using this equation, a relationship between liquid levels H and flow quantity Q can be derived: H=RQ+KQ2 (2) where parameters R and K depends on the geometrical profile of the channels. […]"}}, "data": [{"smiles": "Nc1ncnc2c1ncn2[C@@H]1O[C@H](COP(=O)(O)OP(=O)(O)OP(=O)(O)O)[C@@H](O)[C@H]1O", "note": "[ATP]", "values": [{"measurement": "threshold concentration range", "setting": "HL60 cells [1]", "value": "0.15 to 0.19", "unit": "µM"}, {"measurement": "increase of cellular signal intensity (fold)", "setting": "HL60 cells [2]; 2 μM ATP loaded into CW/A vial, first zone (A to B) compared to other zones", "value": 3, "unit": "fold"}, {"measurement": "cellular fluorescence intensity", "setting": "HL60 cells [2]; 5 μM ATP loaded, first (A to B) and second (C to D) zones", "value": "enhanced"}, {"measurement": "Ca-related fluorescence", "setting": "HL60 cells [2]; 10 μM ATP loaded, all cells in all zones", "value": "excited"}, {"measurement": "threshold concentration of ATP-dependent calcium uptake", "setting": "HL60 cells [2]; on-chip, HL60 cells, estimated from computational gradient model combining 2 μM and 5 μM ATP stimulations", "value": "0.16 ± 0.02", "unit": "µM"}, {"measurement": "threshold ATP concentration", "setting": "HL60 cells [2]; on-chip, HL60 cells, indicated by experimental results before gradient estimation", "value": "below 2 μM"}]}]}
